Test results as given in US9738634B2, “Heterocyclic amide compound and herbicide” (SYNGENTA PARTICIPATIONS AG, priority 2013, dated 2017).

How the values were obtained:
Type in all cases: in vivo
barnyard grass [1] = assay: Test Example 1: weedkilling efficacy, preemergent weed treatment in the submerged state; A: barnyard grass; settings: treatment dosage 320 g/ha
Method in brief: (§1)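 Pre-emergence application onto floodwater (4 cm, alluvial soil) on the day of sowing, dose expressed as g/ha from diluted emulsion formulation. Weeds sown with 2.5-leaf transplanted rice as crop; plants held at 25–30 °C in greenhouse and scored against assessment criteria after 3 weeks.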

bulrush [2] = assay: Test Example 1: weedkilling efficacy, preemergent weed treatment in the submerged state; B: bulrush; settings: treatment dosage 320 g/ha
Method in brief: as §1

oval-leafed pondweed [3] = assay: Test Example 1: weedkilling efficacy, preemergent weed treatment in the submerged state; C: oval-leafed pondweed; settings: treatment dosage 320 g/ha
Method in brief: as §1

transplanted rice = assay: Test Example 1: preemergent weed treatment in the submerged state, effect on crop; a: transplanted rice; settings: treatment dosage 320 g/ha
Method in brief: as §1

barnyard grass [4] = assay: Test Example 2: weedkilling efficacy, growth period weed treatment in the submerged state; A: barnyard grass; settings: treatment dosage 320 g/ha
Method in brief: (§2)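 Weeds treated at the 1-2 leaf stage by application of diluted emulsion onto floodwater (4 cm depth, alluvial soil) at specified g/ha. Grown in greenhouse at 25 to 30° C; herbicidal effect rated three weeks after treatment.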

bulrush [5] = assay: Test Example 2: weedkilling efficacy, growth period weed treatment in the submerged state; B: bulrush; settings: treatment dosage 320 g/ha
Method in brief: as §2

oval-leafed pondweed [6] = assay: Test Example 2: weedkilling efficacy, growth period weed treatment in the submerged state; C: oval-leafed pondweed; settings: treatment dosage 320 g/ha
Method in brief: as §2

crabgrass = assay: Test Example 3: weedkilling efficacy through soil treatment; D: crabgrass; settings: soil treatment, treatment dosage 320 g/ha
Method in brief: (§3)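 Crop and weed responses were judged three weeks after a uniform surface spray of the water-diluted emulsion at the given g/ha rate. Seeds sat beneath about 1.5 cm of sterilized diluvial soil, and boxes stood in a greenhouse at 25 to 30° C.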

green foxtail = assay: Test Example 3: weedkilling efficacy through soil treatment; E: green foxtail; settings: soil treatment, treatment dosage 320 g/ha
Method in brief: as §3

barnyard grass [7] = assay: Test Example 3: weedkilling efficacy through soil treatment; F: barnyard grass; settings: soil treatment, treatment dosage 320 g/ha
Description: Weedkilling Efficacy Test Through Soil Treatment
Sterilized diluvial soil was introduced into 21 cm long, 13 cm wide, 7 cm deep plastic boxes, and seeds of crabgrass, green foxtail, barnyard grass, wild oat, black-grass, Italian ryegrass, common wind-grass, Indian mallow, redroot pigweed, fig-leafed goosefoot, chickweed, catchweed, birds-eye speedwell, corn, soybean, rice, wheat, beet and rapeseed were each spot-sown, and covered with about 1.5 cm of soil. Next, emulsions of compounds of the present invention prepared according to compounding example 2 were diluted with water to give the specified dosages, and applied uniformly onto the soil surface with a small sprayer. The plants were grown by placing the plastic boxes in a greenhouse at 25 to 30° C., and 3 weeks after the pesticide treatment the effect on each type of plant was investigated on the basis of the assessment criteria of test example 1.
A: barnyard grass, B: bulrush, C: oval-leafed pondweed, D: crabgrass, E: green foxtail, F: barnyard grass, G: wild oat, H: black-grass, I: Italian ryegrass, J: common wind-grass, K: Indian mallow, L: redroot pigweed, M: fig-leafed goosefoot, N: chickweed, O: catchweed, p: birds-eye speedwell, a: transplanted rice, b: directly sown rice, c: corn, d: soybean, e: wheat, f: beet, g: rapeseed
Further, pesticide dosage (g/ha) indicates the concentration regulated such that treatment was with only the stated number of grams (g), when calculated per hectare (ha).

wild oat = assay: Test Example 3: weedkilling efficacy through soil treatment; G: wild oat; settings: soil treatment, treatment dosage 320 g/ha
Method in brief: as §3

black-grass = assay: Test Example 3: weedkilling efficacy through soil treatment; H: black-grass; settings: soil treatment, treatment dosage 320 g/ha
Method in brief: as §3

Italian ryegrass = assay: Test Example 3: weedkilling efficacy through soil treatment; I: Italian ryegrass; settings: soil treatment, treatment dosage 320 g/ha
Method in brief: as §3

common wind-grass = assay: Test Example 3: weedkilling efficacy through soil treatment; J: common wind-grass; settings: soil treatment, treatment dosage 320 g/ha
Method in brief: as §3

Indian mallow = assay: Test Example 3: weedkilling efficacy through soil treatment; K: Indian mallow; settings: soil treatment, treatment dosage 320 g/ha
Method in brief: as §3

redroot pigweed = assay: Test Example 3: weedkilling efficacy through soil treatment; L: redroot pigweed; settings: soil treatment, treatment dosage 320 g/ha
Method in brief: as §3

fig-leafed goosefoot = assay: Test Example 3: weedkilling efficacy through soil treatment; M: fig-leafed goosefoot; settings: soil treatment, treatment dosage 320 g/ha
Method in brief: as §3

chickweed = assay: Test Example 3: weedkilling efficacy through soil treatment; N: chickweed; settings: soil treatment, treatment dosage 320 g/ha
Method in brief: as §3

birds-eye speedwell = assay: Test Example 3: weedkilling efficacy through soil treatment; p: birds-eye speedwell; settings: soil treatment, treatment dosage 320 g/ha
Method in brief: as §3

directly sown rice = assay: Test Example 3: soil treatment, effect on crop; b: directly sown rice; settings: soil treatment, treatment dosage 320 g/ha
Method in brief: as §3

corn = assay: Test Example 3: soil treatment, effect on crop; c: corn; settings: soil treatment, treatment dosage 320 g/ha
Method in brief: as §3

soybean = assay: Test Example 3: soil treatment, effect on crop; d: soybean; settings: soil treatment, treatment dosage 320 g/ha
Method in brief: as §3

wheat = assay: Test Example 3: soil treatment, effect on crop; e: wheat; settings: soil treatment, treatment dosage 320 g/ha
Method in brief: as §3

beet = assay: Test Example 3: soil treatment, effect on crop; f: beet; settings: soil treatment, treatment dosage 320 g/ha
Method in brief: as §3

rapeseed = assay: Test Example 3: soil treatment, effect on crop; g: rapeseed; settings: soil treatment, treatment dosage 320 g/ha
Method in brief: as §3

**Q.** With `CC(C)(C(=O)Nc1cc(C(F)(F)F)cc(F)n1)N1COCN(c2ccccc2)C1=O` [A-2-22] as the molecule, how does the “A: barnyard grass, weed kill grade” value (barnyard grass [1]) read?
**A.** 5 (weed kill ratio 90% or more, (practically complete withering))

**Q.** What about the “B: bulrush, weed kill grade” value (bulrush [2]) of the same molecule?
**A.** 5 (weed kill ratio 90% or more, (practically complete withering))

**Q.** And the “C: oval-leafed pondweed, weed kill grade” value (oval-leafed pondweed [3])?
**A.** 5 (weed kill ratio 90% or more, (practically complete withering))

**Q.** What about the “a: transplanted rice, effect on crop grade” value (transplanted rice) of the same molecule?
**A.** 5 (weed kill ratio 90% or more, (practically complete withering))

**Q.** What about the “A (barnyard grass) weedkilling efficacy grade” value (barnyard grass [4]) of the same molecule?
**A.** 5 (weed kill ratio 90% or more, (practically complete withering))

**Q.** What about the “B (bulrush) weedkilling efficacy grade” value (bulrush [5]) of the same molecule?
**A.** 5 (weed kill ratio 90% or more, (practically complete withering))

**Q.** And the “C (oval-leafed pondweed) weedkilling efficacy grade” value (oval-leafed pondweed [6])?
**A.** 5 (weed kill ratio 90% or more, (practically complete withering))

**Q.** What about the “D: crabgrass, weedkilling efficacy grade” value (crabgrass) of the same molecule?
**A.** 5 (weed kill ratio 90% or more, (practically complete withering))

**Q.** And the “E: green foxtail, weedkilling efficacy grade” value (green foxtail)?
**A.** 5 (weed kill ratio 90% or more, (practically complete withering))

**Q.** And the “F: barnyard grass, weedkilling efficacy grade” value (barnyard grass [7])?
**A.** 5 (weed kill ratio 90% or more, (practically complete withering))

**Q.** And the “G: wild oat, weedkilling efficacy grade” value (wild oat)?
**A.** 5 (weed kill ratio 90% or more, (practically complete withering))

**Q.** And the “H: black-grass, weedkilling efficacy grade” value (black-grass)?
**A.** 5 (weed kill ratio 90% or more, (practically complete withering))

**Q.** What about the “I: Italian ryegrass, weedkilling efficacy grade” value (Italian ryegrass) of the same molecule?
**A.** 5 (weed kill ratio 90% or more, (practically complete withering))

**Q.** And the “J: common wind-grass, weedkilling efficacy grade” value (common wind-grass)?
**A.** 5 (weed kill ratio 90% or more, (practically complete withering))

**Q.** What about the “K: Indian mallow, weedkilling efficacy grade” value (Indian mallow) of the same molecule?
**A.** 4 (weed kill ratio 70% or more, less than 90%)

**Q.** What about the “L: redroot pigweed, weedkilling efficacy grade” value (redroot pigweed) of the same molecule?
**A.** 4 (weed kill ratio 70% or more, less than 90%)

**Q.** What about the “M: fig-leafed goosefoot, weedkilling efficacy grade” value (fig-leafed goosefoot) of the same molecule?
**A.** 4 (weed kill ratio 70% or more, less than 90%)

**Q.** And the “N: chickweed, weedkilling efficacy grade” value (chickweed)?
**A.** 4 (weed kill ratio 70% or more, less than 90%)

**Q.** And the “P: birds-eye speedwell, weedkilling efficacy grade” value (birds-eye speedwell)?
**A.** 5 (weed kill ratio 90% or more, (practically complete withering))

**Q.** And the “b: directly sown rice, effect on crop grade” value (directly sown rice)?
**A.** 5 (weed kill ratio 90% or more, (practically complete withering))

**Q.** What about the “c: corn, effect on crop grade” value (corn) of the same molecule?
**A.** 0 (weed kill ratio 5% or less (practically no effect))

**Q.** What about the “d: soybean, effect on crop grade” value (soybean) of the same molecule?
**A.** 4 (weed kill ratio 70% or more, less than 90%)

**Q.** What about the “e: wheat, effect on crop grade” value (wheat) of the same molecule?
**A.** 0 (weed kill ratio 5% or less (practically no effect))

**Q.** And the “f: beet, effect on crop grade” value (beet)?
**A.** 4 (weed kill ratio 70% or more, less than 90%)

**Q.** What about the “g: rapeseed, effect on crop grade” value (rapeseed) of the same molecule?
**A.** 4 (weed kill ratio 70% or more, less than 90%)
